# Laboratory results reported in publication PMC6706138, “IL-6–HaloTag® enables live-cell plasma membrane staining, flow cytometry, functional expression, and de-orphaning of recombinant odorant receptors” (Journal of Biological Methods, 2017).
# Legend:
# Format in all cases: cell-based
# OR8D1 = target: T1, OR8D1 (Homo sapiens, UniProt Q8WZ84); assay: GloSensor cAMP luminescence
# T1 construct: full coding region amplified from human genomic DNA, N-terminal IL-6-HaloTag kept, transient in NxG 108CC15 cells with RTP1S, G-alpha-olf, G-gamma-13, GloSensor-22F
# T1 sequence (Q8WZ84 1-308): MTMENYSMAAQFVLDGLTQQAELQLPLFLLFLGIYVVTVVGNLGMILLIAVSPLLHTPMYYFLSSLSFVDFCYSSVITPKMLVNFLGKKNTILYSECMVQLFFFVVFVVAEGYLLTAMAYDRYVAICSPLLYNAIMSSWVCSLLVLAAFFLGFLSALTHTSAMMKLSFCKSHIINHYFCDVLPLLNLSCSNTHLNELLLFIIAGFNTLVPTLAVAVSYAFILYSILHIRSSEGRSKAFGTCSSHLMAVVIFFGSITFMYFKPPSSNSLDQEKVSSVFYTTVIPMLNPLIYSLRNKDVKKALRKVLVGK
# Description: GloSensor cAMP luminescence on OR8D1
# OR51E1 = target: T2, OR51E1 (Homo sapiens, UniProt Q8TCB6); assay: GloSensor cAMP luminescence; settings: read-out: IL-6-HaloTag®-receptor / EC50
# T2 construct: full coding region amplified from human genomic DNA, N-terminal IL-6-HaloTag kept, transient in NxG 108CC15 cells with RTP1S, G-alpha-olf, G-gamma-13, GloSensor-22F
# T2 sequence (Q8TCB6 1-318): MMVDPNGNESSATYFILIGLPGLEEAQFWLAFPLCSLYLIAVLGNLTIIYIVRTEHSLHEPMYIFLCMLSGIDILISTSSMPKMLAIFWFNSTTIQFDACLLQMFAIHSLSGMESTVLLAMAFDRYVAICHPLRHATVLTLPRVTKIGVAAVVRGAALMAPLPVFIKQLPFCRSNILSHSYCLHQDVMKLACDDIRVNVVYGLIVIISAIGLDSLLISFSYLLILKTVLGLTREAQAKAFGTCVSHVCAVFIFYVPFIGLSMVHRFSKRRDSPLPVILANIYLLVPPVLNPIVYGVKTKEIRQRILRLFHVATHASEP
# Description: GloSensor cAMP luminescence on OR51E1
# OR10J5 = target: T3, OR10J5 (Homo sapiens, UniProt Q8NHC4); assay: GloSensor cAMP luminescence; settings: read-out: IL-6-HaloTag®-receptor / EC50
# T3 construct: full coding region amplified from human genomic DNA, N-terminal IL-6-HaloTag kept, transient in NxG 108CC15 cells with RTP1S, G-alpha-olf, G-gamma-13, GloSensor-22F
# T3 sequence (Q8NHC4 1-309): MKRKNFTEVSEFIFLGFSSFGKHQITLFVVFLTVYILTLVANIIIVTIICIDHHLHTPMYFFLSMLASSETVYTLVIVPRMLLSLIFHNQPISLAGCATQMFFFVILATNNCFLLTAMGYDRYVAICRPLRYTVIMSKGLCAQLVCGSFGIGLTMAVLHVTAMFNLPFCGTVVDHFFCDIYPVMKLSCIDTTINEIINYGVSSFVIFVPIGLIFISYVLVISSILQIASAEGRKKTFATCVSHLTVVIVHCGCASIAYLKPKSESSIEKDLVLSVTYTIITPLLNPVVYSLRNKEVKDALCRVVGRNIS
# Description: GloSensor cAMP luminescence on OR10J5
# Olfr16 = target: T4, Olfr16 (Mus musculus, UniProt Q62007); assay: GloSensor cAMP luminescence; settings: read-out: IL-6-HaloTag®-receptor / EC50
# T4 construct: gene Or10j5; full coding region amplified from mouse genomic DNA, N-terminal IL-6-HaloTag kept, transient in NxG 108CC15 cells with RTP1S, G-alpha-olf, G-gamma-13, GloSensor-22F
# T4 sequence (Q62007 1-309): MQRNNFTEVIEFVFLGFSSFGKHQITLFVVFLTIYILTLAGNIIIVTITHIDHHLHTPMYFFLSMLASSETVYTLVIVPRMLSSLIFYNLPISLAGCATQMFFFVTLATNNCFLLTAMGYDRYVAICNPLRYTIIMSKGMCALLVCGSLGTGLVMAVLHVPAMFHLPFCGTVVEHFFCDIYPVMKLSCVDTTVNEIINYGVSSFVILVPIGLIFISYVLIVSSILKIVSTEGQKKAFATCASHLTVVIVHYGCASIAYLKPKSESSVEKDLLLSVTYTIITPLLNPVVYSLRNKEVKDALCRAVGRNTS
# Description: GloSensor cAMP luminescence on Olfr16
# OR1A1 [1] = target: T5, OR1A1 (Homo sapiens, UniProt Q9P1Q5); assay: GloSensor cAMP luminescence; settings: read-out: IL-6-HaloTag®-receptor / EC50
# T5 construct: full coding region amplified from human genomic DNA, N-terminal IL-6-HaloTag kept, transient in NxG 108CC15 cells with RTP1S, G-alpha-olf, G-gamma-13, GloSensor-22F
# T5 sequence (Q9P1Q5 1-309): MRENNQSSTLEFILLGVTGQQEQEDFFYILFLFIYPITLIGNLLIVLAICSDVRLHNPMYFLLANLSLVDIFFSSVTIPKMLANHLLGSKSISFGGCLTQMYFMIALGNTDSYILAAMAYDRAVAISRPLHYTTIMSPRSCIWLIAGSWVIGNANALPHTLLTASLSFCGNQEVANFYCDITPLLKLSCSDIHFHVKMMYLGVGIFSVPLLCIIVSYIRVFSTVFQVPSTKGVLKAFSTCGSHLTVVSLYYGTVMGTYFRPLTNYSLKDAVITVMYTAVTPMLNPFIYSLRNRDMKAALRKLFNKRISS
# Description: GloSensor cAMP luminescence on OR1A1
# OR2M3 = target: T6, OR2M3 (Homo sapiens, UniProt Q8NG83); assay: GloSensor cAMP luminescence; settings: IL-6-HaloTag construct, NxG […]CC15 cells, pH […] DMSO, RTP1S/Gαolf/Gγ[…] co-transfected; agonist; read-out: IL-6-HaloTag®-receptor / EC50
# T6 construct: full coding region amplified from human genomic DNA, N-terminal IL-6-HaloTag kept, transient in NxG 108CC15 cells with RTP1S, G-alpha-olf, G-gamma-13, GloSensor-22F
# T6 sequence (Q8NG83 1-312): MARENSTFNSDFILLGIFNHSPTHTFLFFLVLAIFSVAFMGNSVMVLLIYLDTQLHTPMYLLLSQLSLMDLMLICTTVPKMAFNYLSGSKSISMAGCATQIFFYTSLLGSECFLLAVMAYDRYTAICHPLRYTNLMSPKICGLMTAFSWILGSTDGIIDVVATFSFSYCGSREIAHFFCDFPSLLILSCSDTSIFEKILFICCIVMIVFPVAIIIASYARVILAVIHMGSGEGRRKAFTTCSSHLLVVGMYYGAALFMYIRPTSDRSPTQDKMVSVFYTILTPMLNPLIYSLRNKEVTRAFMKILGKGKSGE
# Description: GloSensor cAMP luminescence on OR2M3
# OR2W1 = target: T7, OR2W1 (Homo sapiens, UniProt Q9Y3N9); assay: GloSensor cAMP luminescence
# T7 construct: full coding region amplified from human genomic DNA, N-terminal IL-6-HaloTag kept, transient in NxG 108CC15 cells with RTP1S, G-alpha-olf, G-gamma-13, GloSensor-22F
# T7 sequence (Q9Y3N9 1-320): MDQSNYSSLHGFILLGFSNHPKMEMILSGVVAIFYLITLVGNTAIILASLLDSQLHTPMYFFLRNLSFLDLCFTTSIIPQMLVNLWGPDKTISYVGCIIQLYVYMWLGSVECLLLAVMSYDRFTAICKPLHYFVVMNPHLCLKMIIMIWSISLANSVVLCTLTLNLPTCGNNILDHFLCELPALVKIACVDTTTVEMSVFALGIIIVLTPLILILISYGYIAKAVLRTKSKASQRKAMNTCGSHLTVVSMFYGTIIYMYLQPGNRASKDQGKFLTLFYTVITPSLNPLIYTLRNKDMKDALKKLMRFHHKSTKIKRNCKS
# Description: GloSensor cAMP luminescence on OR2W1
# OR1A1 [2] = target: T5, OR1A1; assay: GloSensor cAMP luminescence, single-concentration screen; settings: IL-6-HaloTag construct, NxG […]CC15 cells, n = […] in duplicates, agonist
smiles,measurement,setting,value
CC1=C(O)C(=O)OC1C (centres unmarked) [sotolone],EC50,OR8D1,1.81 ± 0.19 µM
CCCC(=O)O [butyric acid],EC50,OR51E1,95.6 ± 33.4 µM
CC(C)(O)CCCC1=CCC(C=O)CC1 (centres unmarked) [lyral],EC50,OR10J5,16.3 ± 1.05 µM
same,EC50,Olfr16,34 ± 2.21 µM
C=C(C)[C@@H]1CC=C(C)C(=O)C1 [(R)-(-)-carvone],EC50,OR1A1 [1],7.66 ± 4.75 µM
CCC(S)C(C)CO (centres unmarked) [3-mercapto-2-methylpentan-1-ol],EC50,OR2M3,1.08 ± 1.16 µM
C=CCOC(=O)Cc1ccccc1 [allyl phenyl acetate],EC50,OR2W1,27 ± 1.37 µM
same,"GloSensor cAMP luminescence, single-concentration screen",OR1A1 [2],allyl phenyl acetate best activated OR1A1 and OR2W1
